# According to patent US6342492B1, “Anti-viral triaza compounds and compositions” (The Research Foundation of State University of New York, priority 1995, dated 2002):
# Structures can show the parent of a compound that is named as a salt. Where two headings read alike, the source gives them in different places.
# Key:
# [1] = system: human cytomegalovirus (HCMV); assay: Antiviral testing against human cytomegalovirus (Example 5); assay type: cell-based; details: concentration causing 50% protection against virus, PDR = poor dose response
# [2] = system: herpes simplex virus (HSV); assay: Antiviral testing against herpes simplex virus (Example 5); assay type: cell-based; details: concentration causing 50% protection against virus, PDR = poor dose response
# [3] = system: rous sarcoma virus; assay: Antiviral testing against rous sarcoma virus (Example 5); assay type: cell-based; details: RSV, concentration causing 50% protection against virus, PDR = poor dose response
# [4] = system: influenza virus (FLU WSN); assay: Antiviral testing against influenza virus (Example 5); assay type: cell-based; details: FLU WSH, concentration causing 50% protection against virus
# [5] = system: Human Cytomegalovirus; assay: Semi-automated CPE-inhibition assay for HCMV in human foreskin fibroblast cells; assay type: cell-based
# Method: (§1) Additional antiviral testing was carried out to test the efficacy of compounds of the invention against human cytomegalovirus (HCMV) and another herpesvirus, Variecella Zoster Virus(VZV). The compounds tested were compound (1), the HCl salt of compound (1), Compounds 211, 43, 213 and 214.
# [6] = system: human foreskin fibroblast cells; assay: Inhibition of cell proliferation (cytotoxicity) in herpesvirus screening; assay type: cell-based
# [7] = system: Varicella Zoster Virus; assay: Plaque reduction assay for VZV (Ellen strain); assay type: cell-based
# Method: as §1
# [8] = system: HIV strain MB48; assay: Reverse transcriptase (RT) assay in MT-2 cells, HIV strain MB48; assay type: cell-based
# [9] = system: HIV strain MD48; assay: MAGI assay on HeLa-MAGIC cells (plaque inhibition); assay type: cell-based; details: read-out: ED50 MD48/HeLa
# [10] = system: HIV strain 2h, a primary pediatric clinical isolate; assay: Protein (p24) assay in PBMC cells with 2h; assay type: cell-based; details: read-out: ED50 2h/PBMC
# [11] = system: Varicella Zaster Virus (VZV); assay: Ocular Varicella Zaster Virus infection in rabbits, intravenous therapy; assay type: in vivo, rabbit
# [12] = system: HIV-1; assay: Anti-HIV soluble formazan (XTT tetrazolium) assay in CEM-IW cells; assay type: cell-based
# Method: (§2) In these tests, the IC50 (50% inhibitory concentration) is the concentration resulting in 50% cellular toxicity. EC50 (median effective concentration) is the compound concentration that reduces infection by 50%. The effectiveness of a compound against a virus is expressed as TI50 (median therapeutic index) which is determined by the ratio IC50/EC50.
# (§3) Compounds of the invention were tested to assess the efficacy of the inhibitory effect of the compounds against HIV. The screen was carried out in a soluble formazan assay by the tetrazolium method according to Weislow et al., J. Natl. Cancer Inst. 81:577-586, 1989.
# (§4) The compound was dissolved in dimethyl sulfoxide (DMSO) (final conc. less than 0.25%) and then diluted 1:100 in cell culture medium. Because DMSO is toxic to cells at concentration above 1%, the concentration of the compound in DMSO should be at least 10 uM before dilution with aqueous solution. Various concentrations of the compound were tested against HIV-1 in CEM-IW cells. After six days incubation at 37° C. in a 5% carbon dioxide atmosphere, viable cells were analyzed through addition of tetrazolium salt XTT followed by incubation to allow formazan color development. Cell viability was viewed microscopically and detected spectrophotometrically to quantitate formazan production.
# [13] = system: HIV-1 (IIIB, AZT-resistant, AZT-sensitive, A17, WeJo), HIV-2, SIV; assay: Anti-HIV testing against additional strains (Example 2); assay type: cell-based; details: viruses and cell lines listed in Example 2
# Method: as §3, §4
# (§5) Testing was carried out as described in Example 1 against additional HIV strains. The compound CADA was active against the following viruses using the indicated cell lines:
# (§6) IIIB strain of HIV-1/MT-4 cell line
# (§7) AZT—resistant HIV-1/MT-2 and MT-4 cell lines
# (§8) AZT—sensitive HIV-1/MT-4 cell line
# A17, a strain of HIV-1 resistant to most of the non-nucleoside reverse transcriptase inhibitors/MT-2 and MT-4 cell lines, […]
# [14] = system: MT-4, CEM, MT-2 cell lines, PBMCs; assay: Cell toxicity in testing against additional strains (Example 2); assay type: cell-based; details: Homo sapiens, MT2
# Method: as §2, §5, §6, §7, §8
# A17, a strain of HIV-1 resistant to most of the non-nucleoside reverse transcriptase inhibitors/MT-2 and MT-4 cell lines,
# WeJo, a clinical isolate of HIV-1/PBMCs (fresh human peripheral blood mononuclear cells).
# [15] = system: HIV-1 Wejo; assay: PBL/HIV-1 Wejo infection; assay type: cell-based
# Excerpt: (§9) The studies were based on activity of the compound against HIV-1 in peripheral blood lymphocytes. The results with different solutions and different batches of the compound confirm that the compound is active at submicromolar levels (EC50) and has low cytotoxicity (IC50).
# [16] = system: peripheral blood lymphocytes; assay: Cytotoxicity in PBL/HIV-1 Wejo infection assay; assay type: cell-based
# Excerpt: as §9
# [17] = system: virus attachment; assay: Attachment (p 24 based); assay type: cell-based, HIV
# [18] = molecular target: T1, HIV reverse transcriptase (Human immunodeficiency virus type 1 group M subtype B, UniProt P04585); assay: RT activity (rA.dT); assay type: biochemical
# T1 construct: HIV reverse transcriptase
# [19] = molecular target: T2, HIV protease (Human immunodeficiency virus type 1 group M subtype B, UniProt P04585); assay: Protease activity (rp HPLC); assay type: biochemical; details: read-out: Protease Activity (rp HPLC) ID50
# T2 construct: HIV protease
# [20] = system: HIV-1 Ba-L; assay: Mo-MO/HIV-1 Ba-L infection; assay type: cell-based; details: Human immunodeficiency virus 1, BAL; fresh
# [21] = system: Mo-MO; assay: Cytotoxicity in Mo-MO/HIV-1 Ba-L infection assay; assay type: cell-based; details: high test
# [22] = system: U1/TNF latent infection; assay: Latent infection (U1/TNF); assay type: cell-based
# [23] = system: cell fusion; assay: Cell fusion (mechanism of action studies); assay type: cell-based, HIV; details: preliminary mechanism of action studies
# [24] = in vitro; assay type: in vitro ADME; details: plasma
# Method: (§10) Additional studies on stability, solubility, formulation and pharmokinetics were carried out. Plasma elimination and urinary recovery from mice following i.v. administeration were examined. Solubility of the compound in human, mouse, rat plasma and plasma ultrafiltrate were examined. Stability of the compound in human urine was determined.
# [25] = in vitro; assay type: in vitro ADME; details: rat, plasma
# [26] = Stability in pH 4.0 buffer; assay type: physicochemical
# Method: as §10
# [27] = Solubility in human plasma; assay type: physicochemical; details: plasma or biological fluid, human plasma at 37° C.
# Method: as §10
# [28] = Formulation for animal studies in DMSO/normal saline; assay type: physicochemical; details: 1:20 mixture of DMSO and normal saline (pH 2.7)
# Method: as §10
# [29] = Plasma elimination in mice after i.v. administration; assay type: in vivo; details: mouse plasma, intravenous administration
# Method: as §10
# [30] = Inhibition of cell proliferation (cytotoxicity) in herpesvirus screening; assay type: cell-based, human; details: human, human foreskin fibroblast cells, inhibit cell proliferation by 50%
# [31] = system: Human Cytomegalovirus; assay: Plaque reduction assay for HCMV; assay type: cell-based; details: read-out: Human Cytomegalovirus EC50 (values in parentheses)
# [32] = inhibit cell proliferation by 50%, HCMV CPE-inhibition screen, read-out: Human Cytomegalovirus CC50
# [33] = inhibit cell proliferation by 50%, VZV screen, read-out: Varicella Zoster Virus CC50
# [34] = Reverse transcriptase (RT) assay in MT-2 cells, read-out: ED50 MB48/MT-2
# [35] = MAGI assay on HeLa-MAGIC cells (plaque inhibition)
# [36] = Protein (p24) assay in PBMC cells
# [37] = HCMV CPE-inhibition screen, read-out: Human Cytomegalovirus CC50
# [38] = VZV screen, read-out: Varicella Zoster Virus CC50
# [39] = Human immunodeficiency virus 1, MT2, Reverse transcriptase (RT) assay in MT-2 cells, read-out: ED50 MB48/MT-2
# [40] = Human immunodeficiency virus 1, MAGI assay on HeLa-MAGIC cells (plaque inhibition)
# [41] = Human immunodeficiency virus 1, 2 h, Protein (p24) assay in PBMC cells
compound,measurement,setting,value
"C=C1CN(S(=O)(=O)c2ccccc2)CCCN(Cc2ccccc2)CCCN(S(=O)(=O)c2ccccc2)C1 (as salt: HCl) [Compound 211, 9-Benzyl-3-methylene-1,5-dibenzenesulfonyl-1,5,9-triazacyclododecane]",melting point,,135 to 136 °C
"O=S(=O)(NCCCN(CCCNS(=O)(=O)c1ccccc1)Cc1ccccc1)c1ccccc1 (as salt: hydrochloride) [Compound 210, N-Benzylbis(3-benzenesulfonamidopropyl)amine]",melting point,,135 to 136 °C
C=C1CN(S(=O)(=O)c2ccc(C)cc2)CCCN(Cc2ccccc2)CCCN(S(=O)(=O)c2ccc(C)cc2)C1.Cl [1 · HCl],IC50,[1]; HCMV,PDR
same,IC50,[2],PDR
same,IC50,[3],PDR
same,IC50,[4],>50 µg/mL
same,EC50,[5],> 160000 nM
same,CC50,[6]; [32],> 160000 nM
same,CC50,[6]; [33],> 160000 nM
same,EC50,[7],3400 nM
same,EC50,[8]; [34],200 nM
same,EC50,[9]; [35],100 nM
same,EC50,[10]; [36],150 nM
same,"development of iritis and resolution of VZV disease, comparison of therapies",[11]; By day 5 PI,more effective than acyclovir therapy
same,iris disease (uveitis) development,"[11]; rabbits, intravenous therapy",positive therapeutic response
same,VZV-induced corneal stromal disease development,"[11]; rabbits, intravenous, CADA-HCl 5 and 10 mg/kg/day, ACV 20 mg/kg/day",effective in reducing the development of stromal disease
"C=C1CN(S(=O)(=O)c2ccc(C)cc2)CCCN(Cc2ccccc2)CCCN(S(=O)(=O)c2ccc(C)cc2)C1 [Compound 1, 9-Benzyl-3-methylene-1,5-ditosyl-1,5,9-triazacyclododecane]",EC50,"[12]; Human immunodeficiency virus 1, HIV-1(6S)-AZT sensitive, CEM-IW cells, first test",1200 nM
same,EC50,"[12]; Human immunodeficiency virus 1, second test, another batch, primary screen",2400 nM
same,EC50,[13],2000 nM
same,IC50,[14],> 30000 nM
same,EC50,"[15]; Human immunodeficiency virus 1, Batch 1, A",550 nM
same,EC50,"[15]; Human immunodeficiency virus 1, Batch 1, B",160 nM
same,EC50,"[15]; Human immunodeficiency virus 1, Batch 2",650 nM
same,IC50,"[16]; Batch 1, B",> 100000 nM
same,IC50,[16]; Batch 2,> 100000 nM
same,IC50,"[16]; Lymphocyte, Batch 1, A",> 100000 nM
same,Attachment,[17],No Inhibition
same,RT activity (rA.dT) ID50,[18],No Inhibition
same,IC50,[19],40000 nM
same,EC50,[20],1500 nM
same,IC50,[21],> 30000 nM
same,Latent Infection,[22],No inhibition
same,inhibition of cell fusion,[23],does not appear to inhibit
same,half-life,[24]; human,126 h
same,half-life,[24]; mouse,> 200 h
same,half-life,[25],> 200 h
same,half-life,[26],139 h
same,solubility,[27],1 to 2 µg/mL
same,solubility,[27]; conversion of ug/mL,2 to 3 µM
same,concentration at which the compound can be formulated,[28],1200 nM
same,time detectable in plasma,[29],up to 2 hours
same,IC50,"[1]; HCMV, listed as CADA (1)",> 50 µg/mL
same,IC50,"[1]; Human betaherpesvirus 5, HCMV, read-out: IC50",> 30 µg/mL
same,IC50,[3]; read-out: IC50,> 30 µg/mL
same,IC50,[4]; listed as CADA (1),> 50 µg/mL
same,IC50,"[4]; unidentified influenza virus, WSN",> 30 µg/mL
same,EC50,[5]; Human betaherpesvirus 5,> 34000 nM
same,CC50,[30]; [37],133000 nM
same,CC50,[30]; [38],89000 nM
same,EC50,[7]; Human alphaherpesvirus 3,5300 nM
same,EC50,"[8]; Human immunodeficiency virus 1, MT2, read-out: ED50 MB48/MT-2",800 nM
same,EC50,"[9]; Human immunodeficiency virus 1, MAGI",500 nM
same,EC50,"[10]; Human immunodeficiency virus 1, PBMC, 2 h",150 nM
"C=CCN(CCCN(CCCN(CC=C)S(=O)(=O)c1ccc(C)cc1)Cc1ccccc1)S(=O)(=O)c1ccc(C)cc1 [Compound 004, N-Benzylbis[3-(N′-2-propenyltoluenesulfonamido)propyl]amine dihydrogen sulfate]",EC50,[8]; [34],2600 nM
same,EC50,[9]; [35],3500 nM
same,EC50,[10]; [36],500 nM
"C=C1CN(S(=O)(=O)c2ccc(C)cc2)CCC[N+]([O-])(Cc2ccccc2)CCCN(S(=O)(=O)c2ccc(C)cc2)C1 [Compound 43, 9-Benzyl-3-methylene-1,5-ditosyl-1,5,9-triazacyclododecane-9-oxide]",EC50,[5]; Human betaherpesvirus 5,> 170000 nM
same,CC50,[30]; [37],> 170000 nM
same,CC50,[30]; [38],> 170000 nM
same,EC50,[7]; Human alphaherpesvirus 3,24300 nM
same,EC50,[8]; [39],1800 nM
same,EC50,[9]; [40],3500 nM
same,EC50,[10]; [41],500 nM
"C=C1CN(S(=O)(=O)c2ccccc2)CCCN(Cc2ccccc2)CCCN(S(=O)(=O)c2ccccc2)C1 [Compound 211, 9-Benzyl-3-methylene-1,5-dibenzenesulfonyl-1,5,9-triazacyclododecane]",EC50,[5]; Human betaherpesvirus 5,> 170000 nM
same,CC50,[30]; [37],> 170000 nM
same,CC50,[30]; [38],> 170000 nM
same,EC50,[7]; Human alphaherpesvirus 3,91700 nM
same,EC50,[8]; [39],1900 nM
same,EC50,[9]; [40],1500 nM
same,EC50,[10]; [41],500 nM
N-Benzyl-N-[3-(N-2-methyl-2-propenyl-toluenesulfonamido)propyl]-N-(3-toluenesulfonamidopropyl)amine dihydrogen sulfate [Compound 214],EC50,[5],2200 nM
same,CC50,[6]; [32],> 150000 nM
same,CC50,[6]; [33],68500 nM
same,CC50,"[6]; with HCMV plaque reduction assay, read-out: Human Cytomegalovirus CC50 (values in parentheses)",147000 nM
same,EC50,[31],20500 nM
same,EC50,[7],25200 nM
